# Source: patent US9944639B2, “Quinolizinone derivatives as PI3K inhibitors” (Lupin Limited, priority 2014, dated 2018)
# Target: T1, PI3Kδ (Homo sapiens, UniProt O00329)
# T1 construct: endogenous in cells; host or cells: Raji cells
# Experiment: Cell Based Assay for PI3Kδ (AKT phosphorylation, AlphaScreen SureFire, anti-IgM stimulated Raji cells)
# Conditions: compounds 1 h, anti-IgM (3 μg/mL) 30 min, phosphorylation of AKT, read-out: PI3Kδ inhibition IC50
# Description: [formula] C) Cell Based Assay for PI3Kδ
# Raji cells were maintained in RPMI-1640 (Sigma) supplemented with 10% fetal bovine serum (heat inactivated) (FBS, Sigma), 100 U penicillin/mL, and […] streptomycin and incubated at 37° C. and 5% CO2. Cells were centrifuged and resuspended in a complete medium. The required numbers of cells were transferred to a tissue culture flask containing medium without serum for 1 h at 37° C., 5% CO2. Following 1 h serum starvation, cells were centrifuged and resuspended in Hank's Balanced Salt Solution (HBSS, Sigma) and seeded in at a density of 1 million cells/well in 96-well clear bottom plates. The cells were treated with test compounds for 1 h at 37° C., 5% CO2. Cells were then stimulated with anti-IgM (3 μg/mL) for 30 min. After Stimulation, cells were lysed with 15 μL of 5× lysis buffer and the plate was shaken on an orbital plate shaker at approximately 300 rpm for 10 min. AlphaScreen® SureFire® Cell-based Assay (Perkin-Elmer, Waltham, Mass., USA) was performed to measure phosphorylation of AKT, in the cells according to the manufacturer's instructions. The luminescence was measured using an alpha technology-compatible plate reader BMG Labtech, Germany) at 520-620 nm. Percentage inhibition was calculated according to formula: […]
# IC50 values were calculated by plotting % inhibition against the respective concentrations of test compounds using GraphPad Prism 5.
# T1 sequence (O00329 whole entry): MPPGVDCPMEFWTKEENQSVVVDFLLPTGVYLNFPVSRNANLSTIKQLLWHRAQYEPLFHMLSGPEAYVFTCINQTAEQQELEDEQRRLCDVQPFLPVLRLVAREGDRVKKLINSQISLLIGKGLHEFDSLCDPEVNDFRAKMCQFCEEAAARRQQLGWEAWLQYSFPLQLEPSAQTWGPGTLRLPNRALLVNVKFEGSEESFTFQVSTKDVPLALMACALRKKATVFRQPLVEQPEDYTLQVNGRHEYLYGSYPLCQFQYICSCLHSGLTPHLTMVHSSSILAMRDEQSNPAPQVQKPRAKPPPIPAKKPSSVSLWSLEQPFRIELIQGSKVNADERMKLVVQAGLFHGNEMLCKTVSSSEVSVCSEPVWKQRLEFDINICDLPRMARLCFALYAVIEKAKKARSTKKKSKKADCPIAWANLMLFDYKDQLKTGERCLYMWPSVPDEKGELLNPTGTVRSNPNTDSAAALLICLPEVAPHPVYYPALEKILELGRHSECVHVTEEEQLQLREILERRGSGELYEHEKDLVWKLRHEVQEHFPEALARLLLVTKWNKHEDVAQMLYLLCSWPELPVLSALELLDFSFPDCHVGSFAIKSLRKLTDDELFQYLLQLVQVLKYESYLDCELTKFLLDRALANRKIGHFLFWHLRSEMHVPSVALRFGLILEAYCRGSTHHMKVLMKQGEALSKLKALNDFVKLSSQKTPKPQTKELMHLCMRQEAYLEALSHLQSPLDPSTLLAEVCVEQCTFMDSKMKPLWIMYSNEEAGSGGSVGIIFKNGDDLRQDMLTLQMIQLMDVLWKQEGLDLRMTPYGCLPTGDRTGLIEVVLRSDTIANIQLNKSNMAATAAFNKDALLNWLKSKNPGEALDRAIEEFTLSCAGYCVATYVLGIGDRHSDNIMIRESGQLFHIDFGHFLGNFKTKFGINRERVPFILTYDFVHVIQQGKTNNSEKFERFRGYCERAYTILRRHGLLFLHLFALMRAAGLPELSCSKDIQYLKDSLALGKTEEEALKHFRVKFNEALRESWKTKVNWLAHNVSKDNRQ
# T1 sequence (P27986 whole entry partner): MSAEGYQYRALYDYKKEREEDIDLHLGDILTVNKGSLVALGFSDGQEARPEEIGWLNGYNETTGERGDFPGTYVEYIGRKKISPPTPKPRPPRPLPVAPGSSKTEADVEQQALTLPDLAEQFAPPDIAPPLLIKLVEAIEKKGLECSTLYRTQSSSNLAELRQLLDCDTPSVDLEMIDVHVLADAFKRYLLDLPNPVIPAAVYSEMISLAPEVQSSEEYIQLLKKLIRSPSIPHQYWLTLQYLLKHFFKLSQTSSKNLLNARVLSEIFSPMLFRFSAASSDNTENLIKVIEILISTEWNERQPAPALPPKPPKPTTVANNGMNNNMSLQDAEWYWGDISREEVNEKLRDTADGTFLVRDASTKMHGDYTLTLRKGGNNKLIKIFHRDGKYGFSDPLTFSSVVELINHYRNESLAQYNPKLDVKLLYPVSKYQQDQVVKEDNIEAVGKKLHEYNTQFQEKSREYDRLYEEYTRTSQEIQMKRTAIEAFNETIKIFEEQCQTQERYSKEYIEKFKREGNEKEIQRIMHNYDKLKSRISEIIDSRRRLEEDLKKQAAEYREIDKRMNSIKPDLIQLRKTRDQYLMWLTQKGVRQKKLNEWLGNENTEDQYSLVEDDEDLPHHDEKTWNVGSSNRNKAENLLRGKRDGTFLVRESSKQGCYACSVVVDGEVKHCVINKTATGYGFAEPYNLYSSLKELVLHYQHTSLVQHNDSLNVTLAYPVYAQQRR
row,Structure (SMILES),IC50 [nM]
1,"C[C@H](Nc1nc(N)nc2[nH]cnc12)c1cc2ccc(F)cn2c(=O)c1-c1cc(F)cc(F)c1 [Compound 51, (S)-2-(1-((2-amino-9H-purin-6-yl)amino)ethyl)-3-(3,5-difluorophenyl)-7-fluoro-4H-quinolizin-4-one]",11 to 50
2,"C[C@H](Nc1ncnc2[nH]cc(F)c12)c1cc2ccc(F)cn2c(=O)c1-c1ccccc1 [Compound 40, (S)-7-fluoro-2-(1-((5-fluoro-7H-pyrrolo[2,3-d]pyrimidin-4-yl)amino)ethyl)-3-phenyl-4H-quinolizin-4-one]",0.1 to 10
3,"Cc1cccc2cc([C@H](C)Nc3ncnc(N)c3C#N)c(-c3ccc(F)c(F)c3)c(=O)n12 (single isomer, unassigned) [Compound 19a, 4-Amino-6-((1-(3-(3,4-difluorophenyl)-6-methyl-4-oxo-4H-quinolizin-2-yl)ethyl)amino)pyrimidine-5-carbonitrile]",11 to 50
4,"Cc1c(F)ccc2cc([C@H](C)Nc3ncnc(N)c3C#N)c(-c3cccc(F)c3)c(=O)n12 (single isomer, unassigned) [Compound 23a, 4-Amino-6-((1-(7-fluoro-3-(3-fluorophenyl)-6-methyl-4-oxo-4H-quinolizin-2-yl)ethyl)amino)pyrimidine-5-carbonitrile]",0.1 to 10
5,"CC[C@H](Nc1nc(N)nc2[nH]cnc12)c1cc2ccc(F)cn2c(=O)c1-c1cccc(F)c1 (single isomer, unassigned) [Compound 47b, 2-(1-((2-amino-9H-purin-6-yl)amino)propyl)-7-fluoro-3-(3-fluorophenyl)-4H-quinolizin-4-one]",11 to 50
6,"Cc1cccc2cc([C@H](C)Nc3nc(N)nc4[nH]cnc34)c(-c3cc(F)cc(F)c3)c(=O)n12 (single isomer, unassigned) [Compound 18a, 2-(1-((2-amino-9H-purin-6-yl)amino)ethyl)-3-(3,5-difluorophenyl)-6-methyl-4H-quinolizin-4-one]",0.1 to 10
7,"Cc1nc(N)nc(N[C@@H](C)c2cc3ccc(F)cn3c(=O)c2-c2cccc(F)c2)c1C#N (single isomer, unassigned) [Compound 21a, 2-Amino-4-((1-(7-fluoro-3-(3-fluorophenyl)-4-oxo-4H-quinolizin-2-yl)ethyl)amino)-6-methylpyrimidine-5-carbonitrile]",0.1 to 10

# Second part, the compound after the results:
row,IC50 [nM],Structure (SMILES)
1,11 to 50,"Cc1cccc(-c2c([C@H](C)Nc3ncnc(N)c3C#N)cc3ccc(F)cn3c2=O)c1 [Compound 31, (S)-4-amino-6-((1-(7-fluoro-4-oxo-3-(m-tolyl)-4H-quinolizin-2-yl)ethyl)amino)pyrimidine-5-carbonitrile]"
2,0.1 to 10,"C[C@H](Nc1nc(N)nc(Cl)c1C#N)c1cc2ccc(F)cn2c(=O)c1-c1ccccc1 [Compound 53, (S)-2-amino-4-chloro-6-((1-(7-fluoro-4-oxo-3-phenyl-4H-quinolizin-2-yl)ethyl)amino)pyrimidine-5-carbonitrile]"
3,11 to 50,"C[C@@H](c1cc2ccc(F)cn2c(=O)c1-c1ccccc1)n1nc(-c2cc(F)cc(NS(C)(=O)=O)c2)c2c(N)ncnc21 (single isomer, unassigned) [Compound 58a, N-(3-(4-amino-1-(1-(7-fluoro-4-oxo-3-phenyl-4H-quinolizin-2-yl)ethyl)-1H-pyrazolo[3,4-d]pyrimidin-3-yl)-5-fluorophenyl)methanesulfonamide]"
4,0.1 to 10,"CC(c1cc2ccc(F)cn2c(=O)c1-c1ccccc1)n1nc(-c2cccc(O)c2)c2c(N)ncnc21 (stereo not shown) [Compound 62, 2-(1-(4-amino-3-(3-hydroxyphenyl)-1H-pyrazolo[3,4-d]pyrimidin-1-yl)ethyl)-7-fluoro-3-phenyl-4H-quinolizin-4-one]"
5,0.1 to 10,"Cc1cccc2cc([C@H](C)Nc3ncnc4[nH]cnc34)c(-c3cccc(F)c3)c(=O)n12 (single isomer, unassigned) [Compound 11a, 2-(1-((9H-purin-6-yl)amino)ethyl)-3-(3-fluorophenyl)-6-methyl-4H-quinolizin-4-one]"
6,11 to 50,"C[C@H](Nc1ncnc(N)c1C#N)c1cc2ccc(F)cn2c(=O)c1-c1ccccc1 (single isomer, unassigned) [Compound 14a]"
